Measurements reported in patent US20100196264A1, “USE OF SOMATOSTATIN ANALOGS IN MYOCARDIAL PERFUSION IMAGING” (THE BRIGHAM AND WOMEN'S HOSPITAL, INC., priority 2007, published 2010).

B1: cholecystokinin (peptide, UniProt P06307 21-115, looked up)
Cholecystokinin: QPVPPADPAGSGLQRAEEAPRRQLRVSQRTDGESRAHLGALLARYIQQARKAPSGRMSIVKNLQNLDPSHRISDRDYMGWMDFGRRSAEEYEYPS
modifications: Cholecystokinin
notes: gastric stimulant

Columns and labels:
[1] = tested on: abdominal radiotracer uptake; settings: literature, cited from earlier work; for obscuring effect of abdominal radiotracer uptake: myocardial perfusion imaging
[2] = target: SST2 (Homo sapiens, UniProt P30874); settings: cited from earlier work
Chain of SST2 (P30874 whole entry): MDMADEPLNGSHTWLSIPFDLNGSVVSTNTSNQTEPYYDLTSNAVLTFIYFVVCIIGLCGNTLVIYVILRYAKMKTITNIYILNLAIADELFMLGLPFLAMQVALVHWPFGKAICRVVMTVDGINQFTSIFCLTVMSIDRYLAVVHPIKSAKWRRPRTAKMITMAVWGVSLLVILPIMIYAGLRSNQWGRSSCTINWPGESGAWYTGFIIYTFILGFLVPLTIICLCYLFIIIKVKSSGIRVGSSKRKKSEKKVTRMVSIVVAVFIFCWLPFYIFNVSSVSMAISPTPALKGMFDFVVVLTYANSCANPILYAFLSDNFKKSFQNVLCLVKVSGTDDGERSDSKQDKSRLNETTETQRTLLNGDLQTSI

[3] = target: SST4 (Homo sapiens, UniProt P31391); settings: cited from earlier work
Chain of SST4 (P31391 whole entry): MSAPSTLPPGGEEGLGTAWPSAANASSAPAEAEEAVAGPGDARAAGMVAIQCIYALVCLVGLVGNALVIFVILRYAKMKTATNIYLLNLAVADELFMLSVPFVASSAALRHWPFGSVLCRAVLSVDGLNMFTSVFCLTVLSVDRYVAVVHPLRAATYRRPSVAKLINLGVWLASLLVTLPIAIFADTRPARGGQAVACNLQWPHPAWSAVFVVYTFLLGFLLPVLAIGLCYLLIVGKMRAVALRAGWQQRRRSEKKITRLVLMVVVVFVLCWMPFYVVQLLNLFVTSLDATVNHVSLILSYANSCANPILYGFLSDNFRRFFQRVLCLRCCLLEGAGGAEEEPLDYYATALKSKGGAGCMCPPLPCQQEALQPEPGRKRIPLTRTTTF

[4] = target: SST3 (Homo sapiens, UniProt P32745); settings: cited from earlier work
Chain of SST3 (P32745 whole entry): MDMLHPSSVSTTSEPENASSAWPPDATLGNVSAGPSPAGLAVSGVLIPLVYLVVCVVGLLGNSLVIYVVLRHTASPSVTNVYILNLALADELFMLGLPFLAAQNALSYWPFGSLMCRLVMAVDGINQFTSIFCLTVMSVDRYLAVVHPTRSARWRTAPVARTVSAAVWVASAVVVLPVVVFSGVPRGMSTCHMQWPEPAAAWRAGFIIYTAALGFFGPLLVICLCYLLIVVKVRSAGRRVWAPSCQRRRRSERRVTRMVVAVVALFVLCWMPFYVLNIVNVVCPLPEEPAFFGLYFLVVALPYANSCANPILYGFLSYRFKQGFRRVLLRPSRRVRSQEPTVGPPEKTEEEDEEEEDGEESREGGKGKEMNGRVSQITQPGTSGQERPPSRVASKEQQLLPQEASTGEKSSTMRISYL

[5] = target: SST1 (Homo sapiens, UniProt P30872); settings: cited from earlier work
Chain of SST1 (P30872 whole entry, the tested form may be a part): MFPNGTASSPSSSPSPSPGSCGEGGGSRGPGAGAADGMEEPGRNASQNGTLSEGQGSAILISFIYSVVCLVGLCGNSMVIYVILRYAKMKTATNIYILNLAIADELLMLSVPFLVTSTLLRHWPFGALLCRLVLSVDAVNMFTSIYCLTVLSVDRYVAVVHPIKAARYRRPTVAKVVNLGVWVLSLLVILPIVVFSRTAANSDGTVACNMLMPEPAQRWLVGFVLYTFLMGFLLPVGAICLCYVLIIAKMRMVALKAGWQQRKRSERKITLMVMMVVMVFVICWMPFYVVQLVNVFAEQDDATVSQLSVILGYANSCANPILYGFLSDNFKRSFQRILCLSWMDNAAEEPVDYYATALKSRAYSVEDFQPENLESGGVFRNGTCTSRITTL

[6] = tested on: extracardiac uptake of radiotracer; assay: Myocardial perfusion imaging with periprocedural somatostatin analog (examples); type: in vivo
[7] = tested on: gastric mucosal blood flow; settings: fifteen minutes after a single bolus injection; laser Doppler flowmeter; adapted from Surg Endosc (2003) 17: 1570-1572; cited from earlier work
[8] = tested on: portal vein flow; settings: infusion at various infusion concentrations; adapted from Digestion 1999; 60:132-140; cited from earlier work
[9] = typical administration at rest; Cardiolite Product Insert; cited from earlier work

Row | Molecule | affinity for SST2 (in words) [2] | affinity for SST4 (in words) [3] | affinity for SST3 (in words) [4] | affinity for SST1 (in words) [5] | obscuring effect of abdominal radiotracer uptake [1] | other results
1 | Cn1c(=O)c2[nH]cnc2n(C)c1=O [aminophyllin] | – | – | – | – | – | artifacts in images taken after the dipyridamole injection ([1]; used to counter dipyridamole stress): does not prevent artifacts
2 | CC(C)[C@@H]1NC(=O)[C@H](CCCCN)NC(=O)[C@@H](Cc2c[nH]c3ccccc23)NC(=O)[C@H](Cc2ccc(O)cc2)NC(=O)[C@@H](NC(=O)[C@H](N)Cc2ccc3ccccc3c2)CSSC[C@@H](C(=O)N[C@H](C(N)=O)[C@@H](C)O)NC1=O [lanreotide] | displaying affinity | virtually no affinity | displaying affinity | virtually no affinity | – | extracardiac uptake of radiotracer ([6]; 200 mcg bolus thirty minutes prior to radiotracer, then 200 mcg per hour infusion for rest injections, treadmill exercise stress): reduced
3 | C[C@@H](O)[C@@H]1NC(=O)[C@H](CCCCN)NC(=O)[C@@H](Cc2c[nH]c3ccccc23)NC(=O)[C@H](Cc2ccccc2)NC(=O)[C@@H](NC(=O)[C@H](N)Cc2ccccc2)CSSC[C@@H](C(=O)N[C@H](CO)[C@@H](C)O)NC1=O [Octreotide, octreotide] | displaying affinity | virtually no affinity | displaying affinity | virtually no affinity | – | reduction in gastric mucosal blood flow [7]: 50%; portal vein flow [8]: decrease; extracardiac uptake of radiotracer ([6]; 100 mcg bolus fifteen minutes prior to radiotracer, then 100 mcg per hour constant infusion, adenosine stress): reduced; extracardiac uptake of radiotracer ([6]; 100 mcg bolus ten minutes prior to radiotracer, second 100 mcg bolus ten minutes prior to adenosine stress): reduced
4 | CCN(CC)CCNC(=O)c1cc(Cl)c(N)cc1OC [metoclopromide] | – | – | – | – | did not significantly decrease | –
5 | [C-]#[N+]CC(C)(C)OC.[C-]#[N+]CC(C)(C)OC.[C-]#[N+]CC(C)(C)OC.[C-]#[N+]CC(C)(C)OC.[C-]#[N+]CC(C)(C)OC.[C-]#[N+]CC(C)(C)OC.[Tc] [Tc-99m-setsamibi] | – | – | – | – | – | total dose absorbed into the liver [9]: 19%; total dose taken into the heart [9]: 1.2%
6 | B1 | – | – | – | – | without success | –
